In article PMC10905675, “INX-315, a Selective CDK2 Inhibitor, Induces Cell Cycle Arrest and Senescence in Solid Tumors” (Cancer Discovery, 2023):

Key:
Experiment in all cases: SelectScreen ZLYTE
Assay type in all cases: biochemical
Conditions in all cases: INX-0315 at 100nM
[1] = biological target: T1, TYRO3 (RSE) (Homo sapiens, UniProt Q06418)
T1 construct: purchased Thermo Fisher Scientific SelectScreen (plus Nanosyn / Reaction Biology for CDK/cyclin lines)
Procedure, shortened: (§1)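 INX-315, single point 100 nmol/L, 1% DMSO; then 10-pt titration 1 µmol/L → 0.0495 nmol/L. Standard vendor conditions.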

[2] = biological target: T2, LYN B (Homo sapiens, UniProt P07948)
T2 construct: purchased Thermo Fisher Scientific SelectScreen (plus Nanosyn / Reaction Biology for CDK/cyclin lines)
Procedure, shortened: as §1

[3] = biological target: T3, PRKCH (PKC eta) (Homo sapiens, UniProt P24723)
T3 construct: purchased Thermo Fisher Scientific SelectScreen (plus Nanosyn / Reaction Biology for CDK/cyclin lines)
Procedure, shortened: as §1

[4] = biological target: T4, EGFR (ErbB1) T790M L858R (Homo sapiens, UniProt P00533, L858R/T790M)
T4 construct: purchased Thermo Fisher Scientific SelectScreen (plus Nanosyn / Reaction Biology for CDK/cyclin lines)
Procedure, shortened: as §1

[5] = biological target: T5, NIM1K (Homo sapiens, UniProt Q8IY84)
T5 construct: purchased Thermo Fisher Scientific SelectScreen (plus Nanosyn / Reaction Biology for CDK/cyclin lines)
T5 sequence (Q8IY84 whole entry): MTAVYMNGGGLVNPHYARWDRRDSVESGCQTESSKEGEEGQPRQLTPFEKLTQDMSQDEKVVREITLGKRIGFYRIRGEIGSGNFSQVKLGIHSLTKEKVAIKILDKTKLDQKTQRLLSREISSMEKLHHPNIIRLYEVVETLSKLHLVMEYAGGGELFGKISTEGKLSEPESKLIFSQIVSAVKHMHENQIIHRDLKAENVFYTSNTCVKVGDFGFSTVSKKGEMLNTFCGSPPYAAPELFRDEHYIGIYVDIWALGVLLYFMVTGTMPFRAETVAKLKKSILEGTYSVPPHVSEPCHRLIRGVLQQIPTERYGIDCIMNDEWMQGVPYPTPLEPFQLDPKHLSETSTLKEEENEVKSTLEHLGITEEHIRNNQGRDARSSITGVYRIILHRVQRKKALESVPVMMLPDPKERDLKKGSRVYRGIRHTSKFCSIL
Procedure, shortened: as §1

[6] = biological target: T6, CDC42 BPG (MRCKG) (Homo sapiens, UniProt Q6DT37)
T6 construct: purchased Thermo Fisher Scientific SelectScreen (plus Nanosyn / Reaction Biology for CDK/cyclin lines)
Procedure, shortened: as §1

[7] = biological target: T7, EPHA2 (Homo sapiens, UniProt P29317)
T7 construct: purchased Thermo Fisher Scientific SelectScreen (plus Nanosyn / Reaction Biology for CDK/cyclin lines)
Procedure, shortened: as §1

[8] = biological target: T8, PRKCZ (PKC zeta) (Homo sapiens, UniProt Q05513)
T8 construct: purchased Thermo Fisher Scientific SelectScreen (plus Nanosyn / Reaction Biology for CDK/cyclin lines)
T8 sequence (Q05513 whole entry): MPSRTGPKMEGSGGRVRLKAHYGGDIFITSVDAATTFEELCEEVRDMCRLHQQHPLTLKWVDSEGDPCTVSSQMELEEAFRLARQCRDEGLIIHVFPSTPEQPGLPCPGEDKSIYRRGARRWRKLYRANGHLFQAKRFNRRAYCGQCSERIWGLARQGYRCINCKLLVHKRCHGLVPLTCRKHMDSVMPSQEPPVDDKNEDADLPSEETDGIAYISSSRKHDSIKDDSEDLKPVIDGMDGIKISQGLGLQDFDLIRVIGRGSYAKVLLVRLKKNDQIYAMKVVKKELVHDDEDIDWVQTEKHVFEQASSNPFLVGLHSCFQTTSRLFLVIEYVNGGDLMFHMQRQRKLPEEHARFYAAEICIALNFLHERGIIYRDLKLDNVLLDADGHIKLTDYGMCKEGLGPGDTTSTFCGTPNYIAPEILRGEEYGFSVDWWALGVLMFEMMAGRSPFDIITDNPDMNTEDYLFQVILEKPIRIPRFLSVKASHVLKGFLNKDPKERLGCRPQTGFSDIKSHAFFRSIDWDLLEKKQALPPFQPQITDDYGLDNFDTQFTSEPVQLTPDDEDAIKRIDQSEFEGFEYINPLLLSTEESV
Procedure, shortened: as §1

[9] = biological target: T9, RET S891A (Homo sapiens, UniProt P07949, S891A)
T9 construct: purchased Thermo Fisher Scientific SelectScreen (plus Nanosyn / Reaction Biology for CDK/cyclin lines)
Procedure, shortened: as §1

[10] = biological target: T10, TXK (Homo sapiens, UniProt P42681)
T10 construct: purchased Thermo Fisher Scientific SelectScreen (plus Nanosyn / Reaction Biology for CDK/cyclin lines)
Procedure, shortened: as §1

[11] = biological target: T11, PRKD1 (PKC mu) (Homo sapiens, UniProt Q15139)
T11 construct: purchased Thermo Fisher Scientific SelectScreen (plus Nanosyn / Reaction Biology for CDK/cyclin lines)
Procedure, shortened: as §1

[12] = biological target: T12, CDK17/cyclin Y (Homo sapiens, UniProt Q00537)
T12 construct: purchased Thermo Fisher Scientific SelectScreen (plus Nanosyn / Reaction Biology for CDK/cyclin lines)
Procedure, shortened: as §1

[13] = biological target: T13, HIPK3 (YAK1) (Homo sapiens, UniProt Q9H422)
T13 construct: purchased Thermo Fisher Scientific SelectScreen (plus Nanosyn / Reaction Biology for CDK/cyclin lines)
Procedure, shortened: as §1

[14] = biological target: T14, FGFR2 N549H (Homo sapiens, UniProt P21802, N549H)
T14 construct: purchased Thermo Fisher Scientific SelectScreen (plus Nanosyn / Reaction Biology for CDK/cyclin lines)
T14 sequence (P21802 22-821 N549H): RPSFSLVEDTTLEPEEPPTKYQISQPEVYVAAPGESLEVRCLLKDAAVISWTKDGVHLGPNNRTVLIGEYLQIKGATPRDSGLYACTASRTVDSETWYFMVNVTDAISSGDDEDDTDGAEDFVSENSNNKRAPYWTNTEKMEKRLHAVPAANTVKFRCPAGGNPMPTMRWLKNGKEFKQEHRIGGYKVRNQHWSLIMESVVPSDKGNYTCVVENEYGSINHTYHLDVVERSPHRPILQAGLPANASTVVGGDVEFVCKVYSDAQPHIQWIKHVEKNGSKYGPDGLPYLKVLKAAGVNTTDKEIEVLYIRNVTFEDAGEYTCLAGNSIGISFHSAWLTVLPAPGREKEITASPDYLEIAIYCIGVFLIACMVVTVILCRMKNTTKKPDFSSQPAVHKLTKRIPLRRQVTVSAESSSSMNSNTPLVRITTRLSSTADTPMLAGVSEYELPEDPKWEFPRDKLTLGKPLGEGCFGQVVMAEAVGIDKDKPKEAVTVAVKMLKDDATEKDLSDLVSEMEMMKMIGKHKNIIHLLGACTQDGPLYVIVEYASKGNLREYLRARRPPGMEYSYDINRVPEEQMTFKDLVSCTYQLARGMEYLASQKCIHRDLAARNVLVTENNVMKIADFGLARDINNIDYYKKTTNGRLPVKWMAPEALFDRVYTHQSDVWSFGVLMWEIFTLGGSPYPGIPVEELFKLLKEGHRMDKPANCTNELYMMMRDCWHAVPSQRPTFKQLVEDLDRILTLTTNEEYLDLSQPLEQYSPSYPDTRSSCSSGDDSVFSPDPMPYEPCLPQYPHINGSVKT
Procedure, shortened: as §1

[15] = biological target: T15, INSR (Homo sapiens, UniProt P06213)
T15 construct: purchased Thermo Fisher Scientific SelectScreen (plus Nanosyn / Reaction Biology for CDK/cyclin lines)
Procedure, shortened: as §1

[16] = biological target: T16, SRPK1 (Homo sapiens, UniProt Q96SB4)
T16 construct: purchased Thermo Fisher Scientific SelectScreen (plus Nanosyn / Reaction Biology for CDK/cyclin lines)
T16 sequence (Q96SB4 whole entry): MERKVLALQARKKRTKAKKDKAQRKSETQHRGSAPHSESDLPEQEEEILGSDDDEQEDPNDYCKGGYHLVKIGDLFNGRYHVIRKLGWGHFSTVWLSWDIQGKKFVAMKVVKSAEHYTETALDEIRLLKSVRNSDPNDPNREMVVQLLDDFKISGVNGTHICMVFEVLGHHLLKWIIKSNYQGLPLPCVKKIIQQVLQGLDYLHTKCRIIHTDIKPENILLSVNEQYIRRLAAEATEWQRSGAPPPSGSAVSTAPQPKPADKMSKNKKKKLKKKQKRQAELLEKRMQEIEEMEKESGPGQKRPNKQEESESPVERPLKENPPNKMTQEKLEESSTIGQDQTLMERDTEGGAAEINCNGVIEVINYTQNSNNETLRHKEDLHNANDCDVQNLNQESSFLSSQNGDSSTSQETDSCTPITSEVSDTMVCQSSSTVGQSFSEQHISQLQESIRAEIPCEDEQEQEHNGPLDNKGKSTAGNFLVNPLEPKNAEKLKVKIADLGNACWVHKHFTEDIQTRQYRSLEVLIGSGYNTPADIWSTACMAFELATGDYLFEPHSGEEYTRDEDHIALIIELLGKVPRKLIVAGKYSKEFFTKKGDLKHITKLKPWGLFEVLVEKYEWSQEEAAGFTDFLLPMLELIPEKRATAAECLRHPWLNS
Procedure, shortened: as §1

[17] = biological target: T17, EPHA1 (Homo sapiens, UniProt P21709)
T17 construct: purchased Thermo Fisher Scientific SelectScreen (plus Nanosyn / Reaction Biology for CDK/cyclin lines)
Procedure, shortened: as §1

[18] = biological target: T18, PRKCD (PKC delta) (Homo sapiens, UniProt Q05655)
T18 construct: purchased Thermo Fisher Scientific SelectScreen (plus Nanosyn / Reaction Biology for CDK/cyclin lines)
Procedure, shortened: as §1

[19] = biological target: T19, TYK2 (Homo sapiens, UniProt P29597)
T19 construct: purchased Thermo Fisher Scientific SelectScreen (plus Nanosyn / Reaction Biology for CDK/cyclin lines)
Procedure, shortened: as §1

[20] = biological target: T20, STK23 (MSSK1) (Homo sapiens, UniProt Q9UPE1)
T20 construct: purchased Thermo Fisher Scientific SelectScreen (plus Nanosyn / Reaction Biology for CDK/cyclin lines)
Procedure, shortened: as §1

[21] = biological target: T21, BRAF V599E (Homo sapiens, UniProt P15056, V600E)
T21 construct: purchased Thermo Fisher Scientific SelectScreen (plus Nanosyn / Reaction Biology for CDK/cyclin lines)
Procedure, shortened: as §1

[22] = biological target: T22, MAP3K19 (YSK4) (Homo sapiens, UniProt Q56UN5)
T22 construct: purchased Thermo Fisher Scientific SelectScreen (plus Nanosyn / Reaction Biology for CDK/cyclin lines)
Procedure, shortened: as §1

[23] = biological target: T23, PAK2 (PAK65) (Homo sapiens, UniProt Q13177)
T23 construct: purchased Thermo Fisher Scientific SelectScreen (plus Nanosyn / Reaction Biology for CDK/cyclin lines)
Procedure, shortened: as §1

[24] = biological target: T24, HCK (Homo sapiens, UniProt P08631)
T24 construct: purchased Thermo Fisher Scientific SelectScreen (plus Nanosyn / Reaction Biology for CDK/cyclin lines)
T24 sequence (P08631 whole entry): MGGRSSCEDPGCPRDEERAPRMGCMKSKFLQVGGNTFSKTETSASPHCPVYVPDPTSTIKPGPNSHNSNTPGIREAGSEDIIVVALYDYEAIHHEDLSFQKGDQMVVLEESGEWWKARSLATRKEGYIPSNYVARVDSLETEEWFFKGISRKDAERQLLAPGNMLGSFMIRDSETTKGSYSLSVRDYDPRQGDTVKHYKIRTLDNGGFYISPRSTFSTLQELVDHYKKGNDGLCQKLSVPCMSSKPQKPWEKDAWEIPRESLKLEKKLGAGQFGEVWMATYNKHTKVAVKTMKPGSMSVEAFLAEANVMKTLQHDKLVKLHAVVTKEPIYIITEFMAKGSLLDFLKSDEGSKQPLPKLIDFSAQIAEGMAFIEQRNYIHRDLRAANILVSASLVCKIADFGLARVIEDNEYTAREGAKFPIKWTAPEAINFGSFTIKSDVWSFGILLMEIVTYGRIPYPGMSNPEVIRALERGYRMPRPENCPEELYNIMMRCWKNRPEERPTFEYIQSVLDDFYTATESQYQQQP
Procedure, shortened: as §1

[25] = biological target: T25, JAK2 JH1 JH2 (Homo sapiens, UniProt O60674)
T25 construct: JAK2 JH1 JH2; purchased Thermo Fisher Scientific SelectScreen (plus Nanosyn / Reaction Biology for CDK/cyclin lines)
Procedure, shortened: as §1

[26] = biological target: T26, FES (FPS) (Homo sapiens, UniProt P07332)
T26 construct: purchased Thermo Fisher Scientific SelectScreen (plus Nanosyn / Reaction Biology for CDK/cyclin lines)
Procedure, shortened: as §1

[27] = biological target: T27, CSNK1A1 (CK1 alpha 1) (Homo sapiens, UniProt P48729)
T27 construct: purchased Thermo Fisher Scientific SelectScreen (plus Nanosyn / Reaction Biology for CDK/cyclin lines)
T27 sequence (P48729 whole entry): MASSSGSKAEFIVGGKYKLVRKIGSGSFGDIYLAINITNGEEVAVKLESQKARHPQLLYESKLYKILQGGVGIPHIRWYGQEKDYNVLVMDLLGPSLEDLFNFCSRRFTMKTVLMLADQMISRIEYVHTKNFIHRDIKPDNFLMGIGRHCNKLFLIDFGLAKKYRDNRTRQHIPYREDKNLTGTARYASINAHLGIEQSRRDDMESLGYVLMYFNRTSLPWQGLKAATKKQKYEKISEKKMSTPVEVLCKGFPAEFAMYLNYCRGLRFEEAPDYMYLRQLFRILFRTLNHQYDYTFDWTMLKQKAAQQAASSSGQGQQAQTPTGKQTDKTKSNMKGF
Procedure, shortened: as §1

[28] = biological target: T28, ACVR1B (ALK4) (Homo sapiens, UniProt P36896)
T28 construct: purchased Thermo Fisher Scientific SelectScreen (plus Nanosyn / Reaction Biology for CDK/cyclin lines)
Procedure, shortened: as §1

[29] = biological target: T29, EPHB3 (Homo sapiens, UniProt P54753)
T29 construct: purchased Thermo Fisher Scientific SelectScreen (plus Nanosyn / Reaction Biology for CDK/cyclin lines)
Procedure, shortened: as §1

[30] = biological target: T30, PDGFRA V561D (Homo sapiens, UniProt P16234, V561D)
T30 construct: purchased Thermo Fisher Scientific SelectScreen (plus Nanosyn / Reaction Biology for CDK/cyclin lines)
Procedure, shortened: as §1

[31] = biological target: T31, MINK1 (Homo sapiens, UniProt Q8N4C8)
T31 construct: purchased Thermo Fisher Scientific SelectScreen (plus Nanosyn / Reaction Biology for CDK/cyclin lines)
Procedure, shortened: as §1

[32] = biological target: T32, SRC N1 (Homo sapiens, UniProt P12931)
T32 construct: purchased Thermo Fisher Scientific SelectScreen (plus Nanosyn / Reaction Biology for CDK/cyclin lines)
T32 sequence (P12931 1-542 isoform P12931-2): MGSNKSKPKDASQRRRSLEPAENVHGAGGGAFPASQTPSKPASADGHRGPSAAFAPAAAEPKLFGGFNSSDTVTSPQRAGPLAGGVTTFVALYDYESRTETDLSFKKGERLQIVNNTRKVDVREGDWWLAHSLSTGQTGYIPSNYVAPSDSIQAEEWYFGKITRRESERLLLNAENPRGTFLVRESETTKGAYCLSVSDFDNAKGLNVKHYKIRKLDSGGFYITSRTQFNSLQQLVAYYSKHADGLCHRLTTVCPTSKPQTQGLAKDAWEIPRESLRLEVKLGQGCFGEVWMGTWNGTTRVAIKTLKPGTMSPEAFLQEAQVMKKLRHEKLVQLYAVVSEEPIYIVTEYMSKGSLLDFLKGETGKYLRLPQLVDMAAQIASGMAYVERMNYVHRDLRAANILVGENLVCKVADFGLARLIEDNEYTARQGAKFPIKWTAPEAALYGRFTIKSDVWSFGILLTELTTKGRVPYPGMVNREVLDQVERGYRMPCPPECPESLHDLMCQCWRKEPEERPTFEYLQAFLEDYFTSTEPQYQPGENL
Procedure, shortened: as §1

[33] = biological target: T33, EGFR (ErbB1) (Homo sapiens, UniProt P00533)
T33 construct: purchased Thermo Fisher Scientific SelectScreen (plus Nanosyn / Reaction Biology for CDK/cyclin lines)
Procedure, shortened: as §1

[34] = biological target: T34, KIT V559D V654A (Homo sapiens, UniProt P10721, V559D/V654A)
T34 construct: purchased Thermo Fisher Scientific SelectScreen (plus Nanosyn / Reaction Biology for CDK/cyclin lines)
Procedure, shortened: as §1

[35] = biological target: T35, RET Y791F (Homo sapiens, UniProt P07949, Y791F)
T35 construct: purchased Thermo Fisher Scientific SelectScreen (plus Nanosyn / Reaction Biology for CDK/cyclin lines)
Procedure, shortened: as §1

[36] = biological target: T36, MET (cMet) Y1235D (Homo sapiens, UniProt P08581, Y1235D)
T36 construct: purchased Thermo Fisher Scientific SelectScreen (plus Nanosyn / Reaction Biology for CDK/cyclin lines)
Procedure, shortened: as §1

T1 sequence (Q06418 41-890): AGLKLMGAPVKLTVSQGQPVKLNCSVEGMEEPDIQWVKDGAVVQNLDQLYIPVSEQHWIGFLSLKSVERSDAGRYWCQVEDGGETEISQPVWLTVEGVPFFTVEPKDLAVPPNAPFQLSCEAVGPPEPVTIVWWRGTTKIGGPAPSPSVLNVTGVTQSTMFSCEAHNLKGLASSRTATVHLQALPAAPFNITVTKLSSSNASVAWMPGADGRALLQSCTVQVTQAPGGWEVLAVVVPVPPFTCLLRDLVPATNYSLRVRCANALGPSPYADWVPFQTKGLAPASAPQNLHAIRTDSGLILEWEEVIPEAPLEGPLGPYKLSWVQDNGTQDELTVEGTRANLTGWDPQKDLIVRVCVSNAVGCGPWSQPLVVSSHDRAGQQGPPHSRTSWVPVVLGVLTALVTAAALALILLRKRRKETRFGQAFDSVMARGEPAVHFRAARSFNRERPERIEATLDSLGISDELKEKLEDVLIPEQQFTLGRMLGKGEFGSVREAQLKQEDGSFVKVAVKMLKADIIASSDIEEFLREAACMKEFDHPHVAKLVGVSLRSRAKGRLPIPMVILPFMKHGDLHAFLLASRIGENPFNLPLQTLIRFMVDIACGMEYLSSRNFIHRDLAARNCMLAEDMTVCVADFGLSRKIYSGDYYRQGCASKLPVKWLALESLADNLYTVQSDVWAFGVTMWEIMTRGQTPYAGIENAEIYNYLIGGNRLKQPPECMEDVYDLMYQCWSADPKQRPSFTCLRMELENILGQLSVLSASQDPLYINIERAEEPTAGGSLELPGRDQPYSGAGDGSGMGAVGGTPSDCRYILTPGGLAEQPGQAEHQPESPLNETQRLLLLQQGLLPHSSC

Structure (SMILES): NS(=O)(=O)c1ccc(Nc2ncc3cc4n(c3n2)C2(CCCCC2)C(=O)NN4)cc1 [INX-315]
- inhibition at 0.1 µM [1]: 14%
- inhibition at 0.1 µM [2]: 17%
- inhibition at 0.1 µM [3]: 11%
- inhibition at 0.1 µM [4]: 0%
- inhibition at 0.1 µM [5]: 5%
- inhibition at 0.1 µM [6]: 4%
- inhibition at 0.1 µM [7]: 14%
- inhibition at 0.1 µM [8]: 10%
- inhibition at 0.1 µM [9]: 46%
- inhibition at 0.1 µM [10]: 7%
- inhibition at 0.1 µM [11]: 9%
- inhibition at 0.1 µM [12]: 20%
- inhibition at 0.1 µM [13]: 4%
- inhibition at 0.1 µM [14]: 16%
- inhibition at 0.1 µM [15]: 7%
- inhibition at 0.1 µM [16]: 7%
- inhibition at 0.1 µM [17]: 22%
- inhibition at 0.1 µM [18]: -5%
- inhibition at 0.1 µM [19]: 89%
- inhibition at 0.1 µM [20]: 6%
- inhibition at 0.1 µM [21]: 7%
- inhibition at 0.1 µM [22]: 13%
- inhibition at 0.1 µM [23]: 5%
- inhibition at 0.1 µM [24]: 10%
- inhibition at 0.1 µM [25]: 44%
- inhibition at 0.1 µM [26]: 17%
- inhibition at 0.1 µM [27]: 5%
- inhibition at 0.1 µM [28]: -2%
- inhibition at 0.1 µM [29]: 3%
- inhibition at 0.1 µM [30]: 53%
- inhibition at 0.1 µM [31]: 15%
- inhibition at 0.1 µM [32]: 9%
- inhibition at 0.1 µM [33]: 4%
- inhibition at 0.1 µM [34]: 7%
- inhibition at 0.1 µM [35]: 50%
- inhibition at 0.1 µM [36]: -2%
